Data: patent US7662593B2, “Activation method of protein derived from extremely thermophilic bacterium in nucleic acid amplification reaction and use thereof” (Aisin Seiki Kabushiki Kaisha, priority 2004, dated 2010)

Assays:
Assay type in all cases: biochemical
T. th. RecA [1] = target: T1, T. th. RecA (Thermus thermophilus, UniProt Q5SHB2); assay: PCR with T. th. DNA polymerase, combination of T. th. RecA with ATP (Example 7); details: 35 cycles
T1 construct: made in house
T1 sequence (Q5SHB2 1-340): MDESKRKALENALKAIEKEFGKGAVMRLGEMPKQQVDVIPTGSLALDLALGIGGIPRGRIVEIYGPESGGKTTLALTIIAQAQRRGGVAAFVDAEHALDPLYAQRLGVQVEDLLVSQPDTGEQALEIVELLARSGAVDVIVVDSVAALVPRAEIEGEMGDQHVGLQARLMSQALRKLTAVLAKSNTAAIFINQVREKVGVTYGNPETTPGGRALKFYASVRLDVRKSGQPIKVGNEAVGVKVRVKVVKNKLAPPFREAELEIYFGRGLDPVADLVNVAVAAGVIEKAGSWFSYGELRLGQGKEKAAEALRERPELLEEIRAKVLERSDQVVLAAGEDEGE
Description: PCR amplification by the T. th. DNA polymerase was carried out using a human genome DNA as a template and Primer Set 1. Five kinds of PCR reaction solution were prepared as shown below. Specifically, Reaction solution R was prepared by adding T. th. RecA and ATP. Reaction solution S was prepared similarly to Reaction solution R except that ATP was not added. Reaction solution T was prepared similarly to Reaction solution R except that ATP and T. th. […] Reaction solution U was prepared similarly to Reaction solution R except that T. th. RecA and ATP were not added but a T. th. RecA storage buffer was added instead. Further, Reaction solution V was prepared similarly to Reaction solution R except that T. th. RecA was not added. The composition of each of the reaction solutions is as shown below.
(§1) The above reaction solutions were thermally denatured at 92° C. for 30 seconds. Then, amplification reaction was carried out with 35 cycles (1 cycle: at 94° C. for 15 seconds, at 55° C. for 30 seconds and at 68° C. for 90 seconds). Thereafter, the amplification reaction was completed by the final reaction cycle at 68° C. for 3 minutes and at 4° C. for 10 minutes. After the amplification, 10 μl of the reaction solution was subjected to electrophoresis with 1.2% agarose gel. […]

T. th. RecA [2] = target: T1, T. th. RecA; assay: PCR with Ex Taq-HS polymerase with T. th. RecA and ATP (Example 3); details: 400 μM ATP plus 0.4 μg T. th. RecA, 36 cycles, Primer Sets 1-6 and 8, compared with no addition
Description: The PCR amplification reaction was carried out using a human genome DNA as a template and Primer Set 1. Two kinds of PCR reaction solutions were prepared as shown below. Specifically, Reaction solution G was prepared with a composition of a general PCR reaction solution without adding any of T. th. RecA and ATP (Control). Reaction solution H was prepared by adding T. th. RecA and ATP further to Reaction solution G. The composition of each of the reaction solutions is as shown below. As a DNA polymerase, an Ex Taq-HS polymerase was used.
(§2) The above reaction solutions were thermally denatured at 94° C. for 30 seconds. Thereafter, the amplification reaction was carried out with 36 cycles (1 cycle: at 94° C. for 15 seconds, at 55° C. for 30 seconds and at 72° C. for 90 seconds). Thereafter, the amplification reaction was completed by the final reaction cycle at 72° C. for 3 minutes and at 4° C. for 10 minutes. After the amplification, 10 μl of the reaction solution was subjected to electrophoresis with 1.2% agarose gel. After the electrophoresis, the bands were visualized by staining the gel with ethidium bromide, and then the electrophoresis gel was photographed. Furthermore, the same experiment was conducted using Primer Sets 2, 3, 4, 5, 6 and 8.

T. th. RecA [3] = target: T1, T. th. RecA; assay: PCR with rTaq-HS polymerase with various nucleotide 5'-triphosphates and T. th. RecA (Example 4); details: 36 cycles; for non-specific amplification in PCR (agarose gel): rTaq buffer
Description: The PCR amplification reaction was carried out using a human genome DNA as a template and Primer Set 1. Seven kinds of PCR reaction solution were prepared as shown below. Specifically, Reaction solution I was a general PCR reaction solution and prepared without adding any of T. th. RecA and nucleotide 5′-triphosphate (Control). Reaction solution J was prepared by adding T. th. RecA to Reaction solution I. Reaction solutions K, L, M and N were prepared by adding GTP, ATP, UTP and CTP to Reaction solution J, respectively. Reaction solution O was prepared by adding only ATP to Reaction solution I without adding T. th. RecA. The composition of each of the reaction solutions is as shown below. As a DNA polymerase, an rTaq-HS polymerase was used.
as §2

T. th. RecA [4] = target: T1, T. th. RecA; assay: PCR and multiplex PCR with T. th. DNA polymerase, T. th. RecA and ATP (Example 8); details: 0.4 mM ATP plus 0.4 μg T. th. RecA
Description: The PCR amplification reaction by the T. th. DNA polymerase was carried out using a human genome DNA as a template. The primer sets used herein were Primer Sets 22, 23, 24, 25, 26, 27, 28, 29, 30, 31, 32, 33, 1 and 2. In addition, multiplex PCR was carried out in which these primer sets were added in one reaction system and amplified. Two kinds of PCR reaction solution were prepared as shown below. Specifically, Reaction solution W was prepared by adding T. th. RecA and ATP. Reaction solution X was prepared similarly to Reaction solution W except that T. th. RecA and ATP were not added but a T. th. RecA storage buffer was added instead.
The above reaction solutions were thermally denatured at 92° C. for 30 seconds. Thereafter, the amplification reaction was carried out with 35 cycles (1 cycle: at 94° C. for 15 seconds, at 55° C. for 30 seconds and at 68° C. for 2 minutes). Thereafter, the amplification reaction was completed by the final reaction cycle at 68° C. for 3 minutes and at 4° C. for 10 minutes. After the amplification, 3 μl of the reaction solution was subjected to electrophoresis with 12.5% acrylamide gel. After the electrophoresis, the bands were visualized by staining the gel with cyber green, and then the electrophoresis gel was photographed.

T. th. RecA [5] = target: T1, T. th. RecA; assay: PCR with rTaq-HS polymerase over 28, 32 or 36 cycles: decrease in T. th. RecA performance, with and without ATP (Example 2); details: 400 μM ATP plus 0.4 μg T. th. RecA, Taq buffer, 28, 32 or 36 cycles, Primer Sets 7-9; compared with T. th. RecA only
Description: The PCR amplification reaction was carried out using a human genome DNA as a template and Primer Set 7. Two kinds of PCR reaction solution were prepared as shown below. Specifically, Reaction solution E was prepared by adding T. th. RecA only. Reaction solution F was prepared by adding ATP in addition to T. th. RecA. The composition of each of the reaction solutions is as shown below. As a DNA polymerase, an rTaq-HS polymerase was used.
as §2, with “conducted in 28, 32 or” for “carried out with”, “seconds). And” for “seconds).”, “8” for “2, 3, 4, 5, 6”, “9.” for “8.”

T. th. RecA [6] = target: T1, T. th. RecA; assay: PCR with rTaq-HS polymerase: influence of reaction solution composition on T. th. RecA performance, with and without ATP (Example 1); details: 400 μM ATP plus 0.4 μg T. th. RecA, rTaq buffer, 35 cycles, human genome DNA, Primer Sets 1-6; compared with T. th. RecA only
Description: The PCR amplification reaction was carried out using a human genome DNA as a template and Primer Set 1. Four kinds of PCR reaction solution were prepared as shown below. Specifically, Reaction solution A was prepared by using 1×rTaq buffer (manufactured by Takara Bio Inc.) as a buffer solution, and Reaction solution B was prepared by adding T. th. RecA further to Reaction solution A. Reaction solution C was prepared by using Taq buffer (manufactured by Takara Bio Inc.) as a buffer solution and adding T. th. RecA. Reaction solution D was prepared by adding T. th. RecA and ATP further to Reaction solution A. The composition of each of the reaction solutions is as shown below. As a DNA polymerase, an rTaq-HS polymerase (manufactured by Takara Bio Inc.) was used.
as §1, with “94°” for “92°”, “Thereafter, the” for “Then,”, “72°” for “68°”, “gel. After the electrophoresis, the bands were visualized by staining the gel with ethidium bromide, and then the electrophoresis gel was photographed.” for “gel.”

T. th. RecA [7] = target: T1, T. th. RecA; assay: PCR with ExTaq-HS polymerase, effects of primer length, Primer Sets 16-21 (Example 6); details: 0.4 mM ATP plus 0.4 μg T. th. RecA, primer base length 20 to 45 (Primer Sets 16-21)
Description: The PCR amplification reaction was carried out using a human genome DNA as a template and the primer sets of various lengths. The primer sets used here were Primer Sets 16, 17, 18, 19, 20 and 21 with the base lengths of 20, 25, 30, 35, 40 and 45. The same PCR reaction solutions as in Example 5 were used. Specifically, Reaction solution P was prepared by adding T. th. RecA and ATP. Reaction solution Q was prepared similarly to Reaction solution P except that ATP was not added. As a DNA polymerase, an ExTaq-HS polymerase (manufactured by Takara Bio Inc.) was used. Then, the PCR reaction was carried out under the same conditions as in Example 5, then electrophoresis and staining of the electrophoresed gel were conducted, and then photographing was conducted according to the same procedures as in Example 5.

T. th. RecA [8] = target: T1, T. th. RecA; assay: PCR with ExTaq-HS polymerase, effects of primer length, Primer Sets 10-15 (Example 5); details: 0.4 mM ATP plus 0.4 μg T. th. RecA, 35 cycles, primer base length 20 to 45 (Primer Sets 10-15)
Description: The PCR amplification reaction was carried out using a human genome DNA as a template and the primer sets of various lengths. The primer sets used here were Primer Sets 10, 11, 12, 13, 14 and 15 with the base length of 20, 25, 30, 35, 40 and 45, respectively. Two kinds of PCR reaction solution were prepared as shown below. Specifically, Reaction solution P was prepared by adding T. th. RecA and ATP. Reaction solution Q was prepared similarly to Reaction solution P except that ATP was not added. The composition of each of the reaction solutions is as shown below. As a DNA polymerase, an ExTaq-HS polymerase (manufactured by Takara Bio Inc.) was used.
as §2, with “35” for “36”, “photographed.” for “photographed. Furthermore, the same experiment was conducted using Primer Sets 2, 3, 4, 5, 6 and 8.”

With Nc1ncnc2c1ncn2[C@@H]1O[C@H](COP(=O)(O)OP(=O)(O)OP(=O)(O)O)[C@@H](O)[C@H]1O [ATP, adenosine 5′-triphosphate] the “non-specific amplification in PCR (agarose gel)” value (T. th. RecA [1]; 0.4 mM ATP only, without T. th. RecA) was “production of non-specific amplification products was found”, the “non-specific amplification in PCR (agarose gel)” value (T. th. RecA [1]; 0.4 mM ATP plus 0.4 μg T. th. RecA, Primer Sets 1-6 and 8) was “non-specific amplification was remarkably suppressed” and the “non-specific amplification in PCR (agarose gel)” value (T. th. RecA [2]) was “non-specific amplification was suppressed”. For the same compound, the “non-specific amplification in PCR (agarose gel)” value (T. th. RecA [3]; 400 μM ATP alone, without T. th. RecA, Lanes 43 to 49) was “non-specific amplification was not suppressed”, the “suppression of non-specific amplification, comparison among the NTP and T. th. RecA combinations” value (T. th. RecA [3]; 400 μM GTP, ATP, UTP or CTP plus 0.4 μg T. th. RecA) was “suppressed non-specific amplification the most” and the “non-specific amplification in PCR (agarose gel)” value (T. th. RecA [3]; 400 μM NTP plus 0.4 μg T. th. RecA, Primer Sets 1-6 and 8, compared with T. th. RecA only) was “non-specific amplification can be suppressed”. The “non-specific amplification in PCR (acrylamide gel)” value (T. th. RecA [4]; 35 cycles, single primer sets 22-33, 1 and 2 (Lanes 1 to 14)) was “non-specific amplification was remarkably suppressed”, the “specific amplification in multiplex PCR (acrylamide gel)” value (T. th. RecA [4]; all 14 primer sets in one reaction system (Lane 15)) was “the target sequences corresponding to each of the primer sets were specifically amplified” and the “non-specific amplification in PCR (agarose gel)” value (T. th. RecA [5]) was “non-specific amplification can be suppressed”. For the same compound, the “non-specific amplification in PCR (agarose gel)” value (T. th. RecA [6]) was “non-specific amplification can be remarkably reduced”, the “non-specific amplification in PCR (agarose gel)” value (T. th. RecA [7]) was “non-specific amplification was remarkably suppressed” and the “non-specific amplification in PCR (agarose gel)” value (T. th. RecA [8]) was “non-specific amplification can be remarkably reduced”.
